Experimental data published in US20140005163A1 (NOVARTIS AG, priority 2010, published 2014).
In brackets after ≈: the same amount, converted by molar mass.

Legend:
[1] = system: PKB Ser473 phosphorylation in Rat1-myr-HA-p110 delta cells; assay: Reverse protein array assay, PKB Ser473 phosphorylation in Rat1-myr-p110 delta cells; type: cell-based; conditions: read-out: p-PKB IC50
Summary of the method: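 Rat1 cells expressing myristoylated HA-tagged p110 alpha, beta or delta were plated for at least 20 h, then exposed to 8-step serial compound dilutions (0.2% DMSO final) for 30 min at 37 °C. Lysates were spotted at four dilutions on protein microarrays, and relative fluorescence intensity of phospho-Ser473 PKB was calculated.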

[2] = Solubility at pH 6.8; type: physicochemical; conditions: pH 6.8, aqueous buffer, thermodynamic from solid; read-out: solubility
Summary of the method: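 Following the procedure of Zhou et al. (2007), compound solubility was determined at pH 6.8.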

[3] = target: T1, mTOR (Homo sapiens, UniProt P42345); assay: Biochemical assay for m-TOR by TR-FRET; conditions: 8 μM ATP, 400 nM GFP-4EBP1, 0.5 nM mTOR
T1 construct: purchased Invitrogen Corporation (Carlsbad/CA, USA) PV4753
Summary of the method: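 TR-FRET detection of pThr46 on GFP-4EBP1 (400 nM final) using Tb3+-labelled antibody (0.5 nM), added with EDTA to stop reactions. Reactions ran at rt with 0.5 nM mTOR and 8 μM ATP (final) in HEPES pH 7.5 buffer containing 10 mM MnCl2.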

T1 sequence (P42345 1360-2549 limits assumed): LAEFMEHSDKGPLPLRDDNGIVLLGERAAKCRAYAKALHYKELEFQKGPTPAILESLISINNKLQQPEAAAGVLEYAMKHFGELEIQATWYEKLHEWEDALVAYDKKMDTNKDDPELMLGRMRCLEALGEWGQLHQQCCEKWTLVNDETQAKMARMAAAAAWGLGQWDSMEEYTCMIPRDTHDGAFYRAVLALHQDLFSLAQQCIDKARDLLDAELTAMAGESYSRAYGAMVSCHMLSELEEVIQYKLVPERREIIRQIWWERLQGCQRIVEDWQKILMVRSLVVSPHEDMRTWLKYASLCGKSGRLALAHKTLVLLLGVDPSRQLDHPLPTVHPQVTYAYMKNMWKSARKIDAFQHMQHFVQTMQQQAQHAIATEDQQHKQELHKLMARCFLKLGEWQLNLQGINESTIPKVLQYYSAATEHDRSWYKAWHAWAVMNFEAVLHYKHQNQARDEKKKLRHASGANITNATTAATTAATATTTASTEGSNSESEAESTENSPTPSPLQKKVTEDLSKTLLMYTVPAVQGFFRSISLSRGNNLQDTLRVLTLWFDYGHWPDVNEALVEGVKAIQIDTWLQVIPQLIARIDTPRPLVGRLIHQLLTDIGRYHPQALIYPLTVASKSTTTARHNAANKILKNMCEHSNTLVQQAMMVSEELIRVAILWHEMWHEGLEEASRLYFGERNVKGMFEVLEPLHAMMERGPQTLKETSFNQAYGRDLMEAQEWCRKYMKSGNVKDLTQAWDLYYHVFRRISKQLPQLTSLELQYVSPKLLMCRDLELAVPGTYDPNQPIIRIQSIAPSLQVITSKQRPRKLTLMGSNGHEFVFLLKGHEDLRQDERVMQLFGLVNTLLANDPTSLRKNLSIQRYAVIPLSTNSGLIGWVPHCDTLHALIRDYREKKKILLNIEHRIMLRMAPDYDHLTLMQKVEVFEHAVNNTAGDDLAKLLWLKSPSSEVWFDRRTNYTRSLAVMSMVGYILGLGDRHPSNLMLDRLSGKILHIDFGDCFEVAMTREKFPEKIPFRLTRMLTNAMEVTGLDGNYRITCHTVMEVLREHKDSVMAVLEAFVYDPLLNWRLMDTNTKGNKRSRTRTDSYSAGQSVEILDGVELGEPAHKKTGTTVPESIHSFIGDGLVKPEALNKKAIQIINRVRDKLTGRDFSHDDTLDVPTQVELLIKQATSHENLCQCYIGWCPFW

| IC50 [1] | solubility [2] | IC50 [3] | Structure (SMILES) |
| --- | --- | --- | --- |
| 11 nM | 44 µg/mL (≈ 94.1 µM) | 3 nM | CNc1ncc(-c2ccc3ncc4c(c3c2)n(-c2cn(C)nc2C)c(=O)n4C)cc1C(F)(F)F [Example 144.3, 1-(1,3-Dimethyl-1H-pyrazol-4-yl)-3-methyl-8-(6-methylamino-5-trifluoromethyl-pyridin-3-yl)-1,3-dihydro-imidazo[4,5-c]quinolin-2-one] |
| 76 nM | 41 µg/mL (≈ 98.9 µM) | 43 nM | Cc1nn(C)cc1-n1c(=O)n(C)c2cnc3ccc(-c4cnc(N(C)C)nc4)cc3c21 [Example 6.2, 8-(2-Dimethylamino-pyrimidin-5-yl)-1-(1,3-dimethyl-1H-pyrazol-4-yl)-3-methyl-1,3-dihydro-imidazo[4,5-c]quinolin-2-one] |
| 50 nM | 25 µg/mL (≈ 60.3 µM) | 15 nM | CCOc1cncc(-c2ccc3ncc4c(c3c2)n(-c2cn(C)nc2C)c(=O)n4C)c1 [Example 56.1, 1-(1,3-Dimethyl-1H-pyrazol-4-yl)-8-(5-ethoxy-pyridin-3-yl)-3-methyl-1,3-dihydro-imidazo[4,5-c]quinolin-2-one] |
| 330 nM | > 457 µg/mL | 35 nM | Cc1nn(C(C)C)cc1-n1c(=O)n(C)c2cnc3ccc(-c4cncc(C(C)(C)O)c4)cc3c21 [Example 215.1, 8-[5-(1-Hydroxy-1-methyl-ethyl)-pyridin-3-yl]-1-(1-isopropyl-3-methyl-1H-pyrazol-4-yl)-3-methyl-1,3-dihydro-imidazo[4,5-c]quinolin-2-one] |
| 234 nM | 7 µg/mL (≈ 15.3 µM) | 778 nM | CCOc1ccc(-c2ccc3ncc4c(c3c2)n(-c2c(C)nn(C)c2C)c(=O)n4C)cc1OC [Example 29.2, 8-(4-Ethoxy-3-methoxy-phenyl)-3-methyl-1-(1,3,5-trimethyl-1H-pyrazol-4-yl)-1,3-dihydro-midazo[4,5-c]quinolin-2-one] |
| 57 nM | 33 µg/mL (≈ 74.4 µM) | 33 nM | CCOCc1cc(-c2ccc3ncc4c(c3c2)n(-c2cn(C)nc2C)c(=O)n4C)cnc1N [Example 166.1, 8-(6-Amino-5-ethoxymethyl-pyridin-3-yl)-1-(1,3-dimethyl-1H-pyrazol-4-yl)-3-methyl-1,3-dihydro-imidazo[4,5-c]quinolin-2-one] |
| 24 nM | > 444 µg/mL | 12 nM | CNc1cc(-c2ccc3ncc4c(c3c2)n(-c2cn(C)nc2C)c(=O)n4C)cnc1COC [Example 159, 1-(1,3-Dimethyl-1H-pyrazol-4-yl)-8-(6-methoxymethyl-5-methylamino-pyridin-3-yl)-3-methyl-1,3-dihydro-imidazo[4,5-c]quinolin-2-one] |
| 154 nM | > 385 µg/mL | 7 nM | Cc1nn(C)cc1-n1c(=O)n(C)c2cnc3ccc(-c4cncc(N)c4)cc3c21 [Example 45.1, 8-(5-Amino-pyridin-3-yl)-1-(1,3-dimethyl-1H-pyrazol-4-yl)-3-methyl-1,3-dihydro-imidazo[4,5-c]quinolin-2-one] |
| 16 nM | 8 µg/mL (≈ 19.3 µM) | 6 nM | COc1cc(-c2ccc3ncc4c(c3c2)n(-c2cn(C)nc2C)c(=O)n4C)cnc1C [Example 184, 1-(1,3-Dimethyl-1H-pyrazol-4-yl)-8-(5-methoxy-6-methyl-pyridin-3-yl)-3-methyl-1,3-dihydro-imidazo[4,5-c]quinolin-2-one] |
| 66 nM | 38 µg/mL (≈ 88.3 µM) | 21 nM | COc1ccc(-c2ccc3ncc4c(c3c2)n(-c2cn(CCO)nc2C)c(=O)n4C)cn1 [Example 103.1, 1-[1-(2-Hydroxy-ethyl)-3-methyl-1H-pyrazol-4-yl]-8-(6-methoxy-pyridin-3-yl)-3-methyl-1,3-dihydro-imidazo[4,5-c]quinolin-2-one] |
| 79 nM | 39 µg/mL (≈ 97.4 µM) | 17 nM | COc1cncc(-c2ccc3ncc4c(c3c2)n(-c2cn(C)nc2C)c(=O)n4C)c1 [Example 12, 1-(1,3-Dimethyl-1H-pyrazol-4-yl)-8-(5-methoxy-pyridin-3-yl)-3-methyl-1,3-dihydro-imidazo[4,5-c]quinolin-2-one] |
| 42 nM | 15 µg/mL (≈ 36.2 µM) | 11 nM | CCOc1ccc(-c2ccc3ncc4c(c3c2)n(-c2cn(C)nc2C)c(=O)n4C)cn1 [Example 3.1, 1-(1,3-Dimethyl-1H-pyrazol-4-yl)-8-(6-ethoxy-pyridin-3-yl)-3-methyl-1,3-dihydro-imidazo[4,5-c]quinolin-2-one] |
| 18 nM | 6 µg/mL (≈ 13.4 µM) | 20 nM | CCn1cc(-n2c(=O)n(C)c3cnc4ccc(-c5cnc(NC)c(Cl)c5)cc4c32)c(C)n1 [Example 146.2, 8-(5-Chloro-6-methylamino-pyridin-3-yl)-1-(1-ethyl-3-methyl-1H-pyrazol-4-yl)-3-methyl-1,3-dihydro-imidazo[4,5-c]quinolin-2-one] |
| 140 nM | 12 µg/mL (≈ 27 µM) | 105 nM | CCn1c(=O)n(-c2cn(C)nc2C)c2c3nc(-c4ccc(OC)c(OC)c4)ccc3ncc21 [Example 251, 8-(3,4-Dimethoxy-phenyl)-1-(1,3-dimethyl-1H-pyrazol-4-yl)-3-ethyl-1,3-dihydro-1,3,5,9-tetraaza-cyclopenta[a]naphthalen-2-one] |
| 70 nM | > 484 µg/mL | 21 nM | CCN(CC)C(=O)Cn1cc(-n2c(=O)n(C)c3cnc4ccc(-c5ccc(C)nc5)cc4c32)c(C)n1 [Example 139, N,N-Diethyl-2-{3-methyl-4-[3-methyl-8-(6-methyl-pyridin-3-yl)-2-oxo-2,3-dihydro-imidazo[4,5-c]quinolin-1-yl]-pyrazol-1-yl}-acetamide] |
| 132 nM | 361 µg/mL (≈ 787 µM) | 39 nM | CCOc1cc(-c2ccc3ncc4c(c3c2)n(-c2cn(C)nc2C)c(=O)n4C)cnc1COC [Example 197.1, 1-(1,3-Dimethyl-1H-pyrazol-4-yl)-8-(5-ethoxy-6-methoxymethyl-pyridin-3-yl)-3-methyl-1,3-dihydro-imidazo[4,5-c]quinolin-2-one] |
| 24 nM | > 434 µg/mL | < 3 nM | CNc1ncc(-c2ccc3ncc4c(c3c2)n(-c2cn(C)nc2C)c(=O)n4C)cc1Cl [Example 146.1, 8-(5-Chloro-6-methylamino-pyridin-3-yl)-1-(1,3-dimethyl-1H-pyrazol-4-yl)-3-methyl-1,3-dihydro-imidazo[4,5-c]quinolin-2-one] |
| 238 nM | 18 µg/mL (≈ 44.9 µM) | 11 nM | Cc1nn(C)cc1-n1c(=O)[nH]c2cnc3ccc(-c4cnc(N(C)C)nc4)cc3c21 [Example 207, 8-(2-Dimethylamino-pyrimidin-5-yl)-1-(1,3-dimethyl-1H-pyrazol-4-yl)-1,3-dihydro-imidazo[4,5-c]quinolin-2-one] |
| 19 nM | 6 µg/mL (≈ 13 µM) | 98 nM | CCNc1cc(-c2ccc3ncc4c(c3c2)n(-c2c(C)nn(C)c2C)c(=O)n4C)cnc1Cl [Example 153.1, 8-(6-Chloro-5-ethylamino-pyridin-3-yl)-3-methyl-1-(1,3,5-trimethyl-1H-pyrazol-4-yl)-1,3-dihydro-imidazo[4,5-c]quinolin-2-one] |
| 96 nM | 11 µg/mL (≈ 26.5 µM) | 74 nM | CCOc1ncc(-c2ccc3ncc4c(c3c2)n(-c2cn(C)nc2C)c(=O)n4C)cn1 [Example 52, 1-(1,3-Dimethyl-1H-pyrazol-4-yl)-8-(2-ethoxy-pyrimidin-5-yl)-3-methyl-1,3-dihydro-imidazo[4,5-c]quinolin-2-one] |
| 91 nM | 10 µg/mL (≈ 23.4 µM) | 13 nM | CNC(=O)c1ccc(-c2ccc3ncc4c(c3c2)n(-c2cn(C)nc2C)c(=O)n4C)cn1 [Example 15.1, 5-[1-(1,3-Dimethyl-1H-pyrazol-4-yl)-3-methyl-2-oxo-2,3-dihydro-1H-imidazo[4,5-c]quinolin-8-yl]-pyridine-2-carboxylic acid methylamide] |
| 772 nM | > 512 µg/mL | 22 nM | Cc1nn(CC(=O)N2CCC2)cc1-n1c(=O)n(C)c2cnc3ccc(-c4cncc(OC(C)C)c4)cc3c21 [Example 205, 1-[1-(2-Azetidin-1-yl-2-oxo-ethyl)-3-methyl-1H-pyrazol-4-yl]-8-(5-isopropoxy-pyridin-3-yl)-3-methyl-1,3-dihydro-imidazo[4,5-c]quinolin-2-one] |
| 59 nM | 62 µg/mL (≈ 136 µM) | 22 nM | CCNc1cc(-c2ccc3ncc4c(c3c2)n(-c2c(C)nn(C)c2C)c(=O)n4C)cnc1CO [Example 155.4, 8-(5-Ethylamino-6-hydroxymethyl-pyridin-3-yl)-3-methyl-1-(1,3,5-trimethyl-1H-pyrazol-4-yl)-1,3-dihydro-imidazo[4,5-c]quinolin-2-one] |
| 66 nM | 141 µg/mL (≈ 282 µM) | 9 nM | CCOc1ccc(-c2ccc3ncc4c(c3c2)n(-c2cn(CC(=O)N(C)CC)nc2C)c(=O)n4C)cn1 [Example 136, 2-{4-[8-(6-Ethoxy-pyridin-3-yl)-3-methyl-2-oxo-2,3-dihydro-imidazo[4,5-c]quinolin-1-yl]-3-methyl-pyrazol-1-yl}-N-ethyl-N-methyl-acetamide] |
| 787 nM | 71 µg/mL (≈ 166 µM) | 543 nM | Cc1nn(C)c(C)c1-n1c(=O)n(C)c2cnc3ccc(-c4ccc(N(C)C)nc4)cc3c21 [Example 4.3, 8-(6-Dimethylamino-pyridin-3-yl)-3-methyl-1-(1,3,5-trimethyl-1H-pyrazol-4-yl)-1,3-dihydro-imidazo[4,5-c]quinolin-2-one] |
